Legend:
HCT116 p53^+/+ cells = experiment: SRB growth inhibition assay in HCT116 p53+/+ cells; format: cell-based, human; settings: SRB assay, 48 h of treatment
Procedure: (§1) To study the in vitro antitumor potential of chalcone CM-M345 (1) and diarylpentanoid BP-C4 (2) analogues, the sulforhodamine B (SRB) assay was used to evaluate the antiproliferative activity in human colorectal HCT116 cancer cells. To assess their cytotoxicity toward normal cells, the antiproliferative effect of these compounds was also tested in human fibroblasts HFF-1 cells. In order to confirm if inhibition of proliferation was associated with p53 activation in HCT116 p53^+/+ cells, all compounds were also tested in HCT116 cells in which p53 was knocked out (HCT116 p53^−/−) and the selective index was calculated and compared to the compounds CM-M345 (1) and BP-C4 (2), for which p53-dependent antiproliferative activity was previously reported by our research group (Table 1).
(§2) The colorectal adenocarcinoma HCT116 cells (HCT116 p53^+/+) and its p53-null isogenic derivative (HCT116 p53^−/−) were given by Prof. Vogelstein (The Johns Hopkins Kimmel Cancer Center, Baltimore, USA); the normal human fibroblasts HFF-1 cell lines were from ATCC (Rockville, MD, USA). Human cells were cultured in RPMI-1640 with UltraGlutamine (Lonza, VWR, Portugal) with 10% FBS (Gibco, Alfagene, Portugal) at 37 °C with 5% CO2. The SH-SY5Y cells were cultured in DMEM/F-12 (Lonza) and 10% FBS and 2mM L-glutamine (Gibco). The cells were incubated at 37 °C in a humidified atmosphere of 5% CO2. Mycoplasma was routinely checked using the MycoAlert™ PLUS kit (Lonza). […]

HCT116 p53^−/− cells = experiment: SRB growth inhibition assay in HCT116 p53-/- cells; format: cell-based, human; settings: for SI1: Selective index 1: GI50 of HCT116 p53^−/−/GI50 of HCT116 p53^+/+; for GI50: Homo sapiens, HCT-116, SRB assay, 48 h of treatment
Procedure: as §1, §2

HFF-1 cells = experiment: SRB growth inhibition assay in normal fibroblasts HFF-1; format: cell-based, human; settings: for SI2: Selective index 2: GI50 of HFF-1/GI50 of HCT116 p53^+/+; for GI50: Homo sapiens, HFF-1, SRB assay, 48 h of treatment
Procedure: as §1, §2

GI50 (HCT116 p53^−/− cells)	GI50 (HCT116 p53^+/+ cells; Homo sapiens, HCT-116, 48 h)	melting point	GI50 (HCT116 p53^+/+ cells)	SMILES	GI50 (HCT116 p53^+/+ cells; Homo sapiens, HCT-116)	SI1: Selective index 1 (HCT116 p53^−/− cells)	SI2: Selective index 2 (HFF-1 cells)	GI50 (HFF-1 cells)
12 ± 5 µM	15 ± 1.73 µM	219 to 222 °C		CCCc1c(OC)ccc(C(O)/C=C/c2cc(OC)c(OC)c(OC)c2)c1O (stereo not shown) [Compound 28, (E)-6-(1-hydroxy-3-(3,4,5-trimethoxyphenyl)allyl)-3-methoxy-2-propylphenol]		0.80	1.13	17 ± 4.4 µM
4.3 ± 0.15 µM	6.7 ± 0.21 µM			COc1cc2c(cc1OC)C(=O)/C(=C/c1ccc(Cl)cc1)CC2 [Compound 14, (E)-2-(4-chlorobenzylidene)-6,7-dimethoxy-3,4-dihydronaphthalen-1(2H)-one]				7.7 ± 0.2 µM
4.6 ± 1.7 µM	6 ± 0.93 µM	100 to 103 °C		CCCc1c(OC)ccc(C(=O)/C=C/c2cc(OC)c(OC)c(OC)c2)c1OCC=C(C)C [Compound 26, (E)-1-(4-methoxy-2-((3-methylbut-2-en-1-yl)oxy)-3-propylphenyl)-3-(3,4,5-trimethoxyphenyl)prop-2-en-1-one]		0.77	1.22	7.3 ± 2 µM
> 30 µM	> 30 µM	153 to 155 °C		CCCc1c(OC)ccc2c(=O)cc(-c3cc(OC)c(OC)c(OC)c3)oc12 [Compound 27, 7-methoxy-8-propyl-2-(3,4,5-trimethoxyphenyl)-4H-chromen-4-one]				> 30 µM
7.2 ± 0.32 µM	9.25 ± 0.75 µM	115 to 117 °C		CCCc1c(OC)ccc(C(=O)/C=C/c2ccc(F)cc2)c1O [Compound 33, (E)-3-(4-fluorophenyl)-1-(2-hydroxy-4-methoxy-3-propylphenyl)prop-2-en-1-one]		0.77	0.89	8.23 ± 0.08 µM
	0.71 µM			COc1cc([C@@H]2c3cc4c(cc3[C@@H](O[C@@H]3O[C@@H]5CO[C@@H](C)O[C@H]5[C@H](O)[C@H]3O)[C@H]3COC(=O)[C@H]23)OCO4)cc(OC)c1O [Etoposide, reference compound]				0.35 µM
> 30 µM	> 30 µM			O=C1/C(=C/c2ccc(Cl)cc2)CC/C1=C\c1ccc(Cl)cc1 [Compound 18]				> 30 µM
3.2 ± 0.47 µM	4.6 ± 0.3 µM	160 to 163 °C		COc1cc(/C=C2\Cc3ccccc3C2=O)cc(OC)c1OC [Compound 3]		0.70	1.76	8.1 ± 0.1 µM
0.07 ± 0.01 µM	0.09 ± 0.03 µM			COc1cc(/C=C2\CC/C(=C\c3cc(OC)c(OC)c(OC)c3)C2=O)cc(OC)c1OC [Compound 22]		0.78	1.50	0.135 ± 0.004 µM
7.8 ± 0.9 µM	5.9 ± 1.28 µM			COc1cc(/C=C2\CCc3ccccc3C2=O)cc(OC)c1OC [Compound 9]		1.32	0.93	5.5 ± 0.03 µM
2.9 ± 0.11 µM	6.7 to 8.6 µM	145 to 147 °C	4 ± 0.23 µM	COc1cc2c(cc1OC)C(=O)/C(=C/c1cc(OC)c(OC)c(OC)c1)CC2 [Compound 10, (E)-2-(3,4,5-trimethoxybenzylidene)-6,7-dimethoxy-3,4-dihydronaphthalen-1(2H)-one]		0.73	1.35	5.4 ± 0.1 µM
5.29 ± 0.19 µM	8.6 ± 0.5 µM			O=C1/C(=C/c2ccc(Cl)cc2)COc2ccccc21 [Compound 15]		0.62	0.49	4.25 ± 0.32 µM
> 30 µM	> 30 µM			CC(C)=CCOc1ccccc1/C=C1\COC/C(=C\c2ccccc2OCC=C(C)C)C1=O [Compound 38, 3,5-bis((E)-2-((3-methylbut-2-en-1-yl)oxy)benzylidene)tetrahydro-4H-pyran-4-one]				> 30 µM
6.1 ± 1 µM	6.7 to 8.6 µM	109 to 111 °C	6.3 ± 2.18 µM	COc1cc(/C=C2\COc3ccccc3C2=O)cc(OC)c1OC [Compound 11]		0.97	1.32	8.3 ± 1.4 µM
> 30 µM	> 30 µM			COc1cc(/C=C/C(=O)/C=C/c2cc(OC)c(OC)c(OC)c2)cc(OC)c1OC [Compound 21]				> 30 µM
0.56 ± 0.07 µM	2.3 ± 0.03 µM			COc1cc(/C=C2\CCC/C(=C\c3cc(OC)c(OC)c(OC)c3)C2=O)cc(OC)c1OC [Compound 23]		0.24	0.72	1.65 ± 0.04 µM
4.1 ± 0.36 µM	6.1 ± 0.12 µM	156 to 159 °C		COc1cc2c(cc1OC)C(=O)/C(=C/c1cc(OC)c(OC)c(OC)c1)C2 [Compound 5]		0.67	0.52	3.2 ± 0.07 µM
> 30 µM	21.5 to 30 µM	179 to 181 °C	21.5 ± 1.19 µM	O=C1/C(=C/c2ccc(Cl)cc2)Cc2ccccc21 [Compound 6]				> 30 µM
11.5 ± 0.145 µM	18.5 ± 0.35 µM	115 to 116 °C		CCCc1c(OC)ccc(C(=O)/C=C/c2ccc(Br)cc2)c1O [Compound 34, (E)-3-(4-bromophenyl)-1-(2-hydroxy-4-methoxy-3-propylphenyl)prop-2-en-1-one]		0.62	0.80	14.9 ± 0.232 µM
4.5 ± 0.13 µM	7.4 ± 0.56 µM	206 to 209 °C		COc1ccc2c(c1OC)C/C(=C\c1ccc(Cl)cc1)C2=O [Compound 7, (E)-2-(4-chlorobenzylidene)-4,5-dimethoxy-2,3-dihydro-1H-inden-1-one]		0.61	0.64	4.7 ± 0.5 µM
> 30 µM	21.5 to 30 µM		> 30 µM	O=C1/C(=C/c2ccc(Cl)cc2)CCc2ccccc21 [Compound 13]				> 30 µM
11.2 ± 5.3 µM	18.7 ± 2.19 µM			CCCc1c(OC)ccc(C(=O)CCc2cc(OC)c(OC)c(OC)c2)c1O [Compound 29, 1-(2-hydroxy-4-methoxy-3-propylphenyl)-3-(3,4,5-trimethoxyphenyl)propan-1-one]		0.60	1.18	22.1 ± 7.2 µM
> 30 µM	> 30 µM	219 to 222 °C		OC1/C(=C/c2ccc(Cl)cc2)COC/C1=C\c1ccc(Cl)cc1 (stereo not shown) [Compound 30, 3,5-bis((E)-4-chlorobenzylidene)tetrahydro-2H-pyran-4-ol]				> 30 µM
0.57 ± 0.009 µM	0.31 ± 0.03 µM	219 to 222 °C		COc1cc(/C=C2\CSC/C(=C\c3cc(OC)c(OC)c(OC)c3)C2=O)cc(OC)c1OC [Compound 24]		1.84	0.74	0.23 ± 0.02 µM
1.05 ± 0.05 µM	1.13 ± 0.17 µM	126 to 128 °C		O=C1/C(=C/c2ccc(Cl)cc2)CSC/C1=C\c1ccc(Cl)cc1 [Compound 20]		0.93	2.01	2.27 ± 0.09 µM
9.5 ± 0.1 µM	9.5 ± 0.5 µM	109 to 112 °C		CCCc1c(OC)ccc(C(=O)/C=C/c2ccc(Cl)cc2)c1O [Compound 32]		1	1.17	11.1 ± 0.12 µM
3.9 ± 0.26 µM	5.7 ± 0.51 µM			COc1cc(/C=C2\CSc3ccccc3C2=O)cc(OC)c1OC [Compound 12, (Z)-3-(3,4,5-trimethoxybenzylidene)thiochroman-4-one]				6.7 ± 0.4 µM
16.3 ± 2.6 µM		126 to 128 °C		CCCc1c(OC)ccc(C(=O)/C=C/c2ccc(N(C)C)cc2)c1O [Compound 35, (E)-3-(4-(dimethylamino)phenyl)-1-(2-hydroxy-4-methoxy-3-propylphenyl)prop-2-en-1-one]		1.52	1.31	14 ± 3.6 µM
2.95 ± 0.15 µM	3.1 ± 0.1 µM			O=C1/C(=C/c2ccc(Cl)cc2)CCC/C1=C\c1ccc(Cl)cc1 [Compound 19]		0.95	4.55	14.1 ± 0.12 µM

SMILES	GI50 (HCT116 p53^−/− cells)	GI50 (HCT116 p53^+/+ cells; Homo sapiens, HCT-116, 48 h)	melting point	GI50 (HCT116 p53^+/+ cells)	GI50 (HCT116 p53^+/+ cells; Homo sapiens, HCT-116)	SI1: Selective index 1 (HCT116 p53^−/− cells)	SI2: Selective index 2 (HFF-1 cells)	GI50 (HFF-1 cells)
COc1cc2c(cc1OC)C(=O)/C(=C/c1ccc(Cl)cc1)C2 [Compound 8]	4.5 ± 0.28 µM				7.5 ± 0.45 µM	0.60	0.68	5.1 ± 0.9 µM

Reference: PMC10610188, “Structure–Activity Relationship Studies of Chalcones and Diarylpentanoids with Antitumor Activity: Potency and Selectivity Optimization” (Pharmaceuticals, 2023)
